Test [1] relates to TNF-α (Tumor Necrosis Factor). Put plainly: LUMINEX liquid-phase chip analysis of KB cell supernatant, TNF-α. Type of test: cell-based, human. Conditions: KB cells; the larger the value, the stronger the anti-inflammatory ability; concentration not given. On the procedure: (§1) Anti-inflammatory activity was assessed using the KB cell (the epidermis cancer cell in human oral cavity). During the experiment, the KB cell inoculated in the cultivating plate was treated with or without positive control or compound morusin. After the treatment, the supernatant of the cultivating medium was collected and stored in −80° C. refrigerator. Inflammation was assessed by measuring several inflammation markers: Prostaglandin E2 (PGE2) in the supernatant was detected by Enzyme-linked immunsorbent assay, and LUMINEX™ multifunctional liquid-phase chip analysis system was used for the detection of granulocyte […] colony stimulating factor (GM-CSF), tumor necrosis factor-alpha (TNF-α), and interleukins 1-beta and 6 (IL-1β and IL-6).
(§2) LUMINEX™ multifunctional liquid-phase chip analyses of GM-CSF, TNF-α, IL-1 and IL-6: The 96-well plate was enclosed with enclosing liquid for 30 minutes. Fluorescent microspheres were added into the 96-well plate after dilution. The standard and the samples to be measured were added, and incubated overnight at 4° C. The next day, the supernatant was discarded and 50 μL GM-CSF, TNF-α, IL-1β and IL-6 antibodies were added to each well. After being rinsed for 4 times, the 96-well plate was placed in a shaking table, which was in ambient temperature, to keep the plate away from light for 1 hour. […]

Another test relates to GM-CSF. Put plainly: LUMINEX liquid-phase chip analysis of KB cell supernatant, GM-CSF. It is filed as cell-based, human. Conditions: KB cells; the larger the value, the stronger the anti-inflammatory ability; concentration not given. On the procedure:
as §1, §2

In test [2] the test system is Porphyromonas gingivalis (P. g) ATCC 33277. The test is described as follows: MIC by micro-dilution method. Type of test: cell-based. The following applies: no unit in table; dilution series 250-0.12 mg/L, ceiling 250 ppm; anaerobic, 37°C, 18-24 h. How it is done:
(§3) A single colony was picked from the Trypticase Digested Soybean peptone agar blood plate (TSA5B) of ordinarily stored bacteria species and used to inoculate corresponding broth culture medium, which was cultivated in a microaerobic environment (P.g needs anaerobic cultivation) with 95% air, 5% CO2 at 37.0° C.±1.0° C., wherein S.m was cultivated for 18-24 h, and the species were cultivated for 40-48 h. Then corresponding broth cultivate medium was used to adjust the turbidity of the bacteria suspension to 0.5^# McFarland standard, equivalent to 1.0×10^8 CFU/mL.
(§4) The operating steps were:
(§5) a. Preparation of the stock solution of antibacterial pharmaceutical: 1% stock solution of various antibacterial pharmaceuticals was prepared with 100% pure ethanol as solvent. The prepared stock solution was filtered to eliminate bacteria, and was distributed into small portions to be used.
(§6) b. Range of measured concentration: the present experiment used 250 ppm as the ceiling measured concentration of the anti-bacterial pharmaceutical.
(§7) c. Measuring method: micro-dilution method.
(§8) First, 100 μL broth medium was added to each well of the 96-well plate, then 100 μL sterile anti-bacteria pharmaceutical solution, which was diluted 10-fold (1000 mg/L), was added to each hole of the first column. Then each well of the first column was mixed repeatedly for 7-8 times using a multi-channel micropipet, and 100 μL sample was transferred to the second column after sufficiently mixing the pharmaceutical with TSB. After being similarly mixed for 7-8 times, 100 μL sample was transferred to the third column, and likewise to the wells of the remaining columns. Thus the concentration of the pharmaceutical was gradiently diluted 2-fold between the columns, from 500 mg/L in the first column to 0.24 mg/L in the last column (the 12th column).
(§9) The bacteria to be tested and standard bacteria were prepared as above. Both bacteria solutions were diluted with broth medium to a bacteria content of about 10^6 CFU/mL. Then 100 μL was inoculated into each well of the 96-well plate containing the anti-bacterial pharmaceutical. Thus the final diluted concentrations of the anti-bacteria pharmaceutical in each column were 250, 125, 62.5 . . . 0.12 mg/L, and the final inoculation quantity is about […] in each well. The 96-well plate was placed on a microshaker and shaken for 1 min to mix the solutions in each well. The microwell plate was covered and sealed with adhesive paper to reduce the evaporation during the incubation process. The plate was placed in a humid box, cultivated in microaerobic environment with 95% air, 5% CO2 (or in anaerobic environment with 90% N2, 5% H2, 5% CO2) at 37.0° C.±1.0° C. for 18-24 h. The 96-well plate is placed under an enzyme-labeling instrument. The growth characteristics of the tested bacteria were compared with the standard bacteria to determine the MIC, which was the lowest anti-bacterial pharmaceutical concentration contained in the well without bacterial growth.

Test [3] has as its system Actinomyces viscosus (A. v) ATCC 27044. The test is described as follows: MIC by micro-dilution method. It is filed as cell-based. Conditions: no unit in table; dilution series 250-0.12 mg/L, ceiling 250 ppm; 37°C, 18-24 h. How it is done:
as §3, §4, §5, §6, §7, §8, §9

Test [4] deals with Streptococcus sanguis (S. sa) ATCC 10556. The test is described as follows: MIC by micro-dilution method. It is filed as cell-based. Conditions: no unit in table; dilution series 250-0.12 mg/L, ceiling 250 ppm; 37°C, 18-24 h. How it is done:
as §3, §4, §5, §6, §7, §8, §9
(Broth dilution looks for growth in wells or tubes with falling amounts of substance.)

Test [5] concerns Fusobacterium nucleatum subsp. Polymorphum (F. n) ATCC 10953. Put plainly: MIC by micro-dilution method. Type of test: cell-based. The following applies: no unit in table; dilution series 250-0.12 mg/L, ceiling 250 ppm; 37°C, 18-24 h. On the procedure: as §3, §4, §5, §6, §7, §8, §9
The test system of test [6] is Actinobacillus actinomycetemcomitans (A. a) ATCC 43717. The test is described as follows: MIC by micro-dilution method. Conditions: no unit in table; dilution series 250-0.12 mg/L, ceiling 250 ppm; 37°C, 18-24 h. Type of test: cell-based. How it is done:
as §3, §4, §5, §6, §7, §8, §9

The test system of test [7] is Streptococcus mutans (S. m) ATCC 25175. Put plainly: MIC by micro-dilution method. Type of test: cell-based. The following applies: no unit in table; dilution series 250-0.12 mg/L, ceiling 250 ppm; 37°C, 18-24 h. How it is done: as §3, §4, §5, §6, §7, §8, §9
Test [8] concerns Actinomyces naeslundii (A. n) ATCC 12104. The test is described as follows: MIC by micro-dilution method. It is filed as cell-based. Conditions: no unit in table; dilution series 250-0.12 mg/L, ceiling 250 ppm; 37°C, 18-24 h. How it is done:
as §3, §4, §5, §6, §7, §8, §9

The test system of another test is IL-1β (interleukin). Put plainly: LUMINEX liquid-phase chip analysis of KB cell supernatant, IL-1β. It is filed as cell-based, human. The following applies: KB cells; the larger the value, the stronger the anti-inflammatory ability; concentration not given. How it is done:
as §1, §2

Another test deals with Prostaglandin E2 (PGE2). The test is described as follows: PGE2 enzyme-linked immunosorbent assay in KB cell supernatant. It is filed as cell-based, human. The following applies: oral KB cell, PGE2 in supernatant by ELISA. How it is done: as §1
In general terms: ELISA stands for enzyme-linked immunosorbent assay.

The next test relates to IL-6 (interleukin). Put plainly: LUMINEX liquid-phase chip analysis of KB cell supernatant, IL-6. It is filed as cell-based, human. The following applies: KB cells; the larger the value, the stronger the anti-inflammatory ability; concentration not given. How it is done:
as §1, §2

Structures are written as SMILES.

With `CC(C)=CCc1c(-c2ccc(O)cc2O)oc2c3c(cc(O)c2c1=O)OC(C)(C)C=C3` [Morusin, 2-(2,4-dihydroxyphenyl)-5-hydroxy-8,8-dimethyl-3-(3-methyl-2-butenyl)-4H,8H-Benzo(1,2-b:3,4-b′)dipyran-4-one], the “anti-inflammatory effect, TNF-α (Tumor Necrosis Factor)” value in test [1] is reported as 91%. The “anti-inflammatory effect, GM-CSF” value with GM-CSF is 9%. Further, in [2], the “MIC, P. g ATCC 33277” value is given as 1.9. In addition, the “MIC, A. v ATCC 27044” value in [3] stood at 2.4. Further, the “MIC, S. sa ATCC 10556” value in [4] amounted to 3.9. Further, in test [5], the “MIC, F. n ATCC 10953” value came to 15.6. In test [6], the “MIC, A. a ATCC 43717” value turned out to be 2.4. The “MIC, S. m ATCC 25175” value in [7] was found to be 3.9. Also, the “MIC, A. n ATCC 12104” value in test [8] came to 1.9. Further, the “anti-inflammatory effect, IL-1β (interleukin)” value in the test with IL-1β (interleukin) stood at 20%. In the test with Prostaglandin E2 (PGE2), the “50% inhibitory concentration (Prostaglandin E2 result)” value is on record as 0.02 ppm. Besides, the “anti-inflammatory effect, IL-6 (interleukin)” value in the test on IL-6 (interleukin) turned out to be 49%.
As to `Oc1cc(Cl)ccc1Oc1ccc(Cl)cc1Cl` [Triclosan], the “anti-inflammatory effect, TNF-α (Tumor Necrosis Factor)” value in test [1] was 81%. Also, the “anti-inflammatory effect, GM-CSF” value in the test on GM-CSF is given as 5%. For the same molecule, in [2], the “MIC, P. g ATCC 33277” value came to 7.8. The “MIC, A. v ATCC 27044” value in [3] was found to be 3.9. Further, the “MIC, S. sa ATCC 10556” value in test [4] worked out at 7.8. Also, the “MIC, F. n ATCC 10953” value in test [5] came to 7.8. In [6], the “MIC, A. a ATCC 43717” value is 1.95. For the same molecule, the “MIC, S. m ATCC 25175” value in test [7] worked out at 3.9. In [8], the “MIC, A. n ATCC 12104” value was found to be 3.9. In addition, the “anti-inflammatory effect, IL-1β (interleukin)” value in the test with IL-1β (interleukin) stood at 7%. For the same molecule, the “50% inhibitory concentration (Prostaglandin E2 result)” value in the test on Prostaglandin E2 (PGE2) is reported as approximately 0.02 ppm. In the test on IL-6 (interleukin), the “anti-inflammatory effect, IL-6 (interleukin)” value is listed as 31%.
